Test results from patent US20240270762A1, “PENICILLIN-BINDING PROTEIN INHIBITORS” (priority 2021, published 2024).
In brackets after ≈: the same amount, converted by molar mass.

Assays:
[1] = target: T1, PBP1a from Acinetobacter baumannii (ATCC 19606) (Acinetobacter baumannii, UniProt A0ABX6CK30); assay: Bocillin-FL fluorescence polarization competition binding, A. baumannii PBP1a
T1 sequence (A0ABX6CK30 1-851): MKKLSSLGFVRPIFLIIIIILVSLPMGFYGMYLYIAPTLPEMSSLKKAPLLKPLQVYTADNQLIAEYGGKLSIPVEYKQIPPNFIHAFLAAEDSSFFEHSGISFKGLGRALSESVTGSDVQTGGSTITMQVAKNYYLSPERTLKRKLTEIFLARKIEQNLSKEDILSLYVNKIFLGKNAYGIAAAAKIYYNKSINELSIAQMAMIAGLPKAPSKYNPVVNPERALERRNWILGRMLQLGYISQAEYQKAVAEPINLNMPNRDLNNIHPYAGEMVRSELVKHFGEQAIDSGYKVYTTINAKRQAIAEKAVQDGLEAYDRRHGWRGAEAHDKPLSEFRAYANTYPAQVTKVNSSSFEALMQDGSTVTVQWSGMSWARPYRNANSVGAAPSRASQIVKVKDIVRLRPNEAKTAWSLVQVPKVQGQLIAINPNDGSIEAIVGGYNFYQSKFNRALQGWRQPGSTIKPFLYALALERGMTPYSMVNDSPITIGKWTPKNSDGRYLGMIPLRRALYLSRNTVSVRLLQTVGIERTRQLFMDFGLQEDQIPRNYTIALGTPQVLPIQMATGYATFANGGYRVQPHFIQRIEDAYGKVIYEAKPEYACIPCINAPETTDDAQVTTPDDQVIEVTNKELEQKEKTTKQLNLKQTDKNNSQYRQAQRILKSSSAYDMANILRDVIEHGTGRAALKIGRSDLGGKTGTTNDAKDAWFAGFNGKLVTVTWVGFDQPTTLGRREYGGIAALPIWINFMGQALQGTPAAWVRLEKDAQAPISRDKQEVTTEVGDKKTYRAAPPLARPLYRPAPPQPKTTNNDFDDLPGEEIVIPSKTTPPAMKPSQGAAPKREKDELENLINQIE
Source text: (§1) To determine the ability of boronic acid-based test PBP inhibitors to bind Penicillin Binding Proteins (PBPs), Bocillin-FL (fluorescently-labeled penicillin V; ThermoFisher Scientific) was used in a fluorescence polarization (FP) competition binding assay to assess inhibitor binding to PBP3 from Escherichia coli (K-12), PBP3 from Pseudomonas aeruginosa (PAO1), PBP1a and PBP3 from Acinetobacter baumannii (ATCC 19606), and PBP2 from Neisseria gonorrhoeae (FA19). PBPs were cloned and purified as described previously (E. coli PBP3, King, D. T, et al., ACS Infectious Diseases 2015, 1, 175-184; P. aeruginosa PBP3, Han et. al., PNAS 2010, 107 (51), 22002-22007; A. baumannii PBPs, Penwell et. al., Antimicrob. Agents Chemother. 2015, 59 (3), 1680-1689; N. gonorrhoeae PBP2, Singh et. al., J. Biol. Chem. 2019, 294 (38), 14020-14032). To establish assay conditions for competition binding, enzyme titration/saturation binding experiments were initially performed. Bocillin-FL was prepared at 0.2 μM in a buffer comprised of 50 mM Hepes (pH 8.0), 300 mM NaCl and 10% (v/v) glycerol for reactions with E. coli, P. aeruginosa and N. gonorrhoeae PBPs, and 25 mM Tris (pH 8.0), 200 mM NaCl, 10% (v/v) glycerol and 0.005% (v/v) Tween 20 for reactions with A. baumannii PBPs. Saturation binding was performed by mixing 40 μl of PBP solutions ranging in concentrations from 0-24 μM with 40 μl of the 0.2 μM Bocillin-FL solution, in individual wells of a black 384-well microplate. FP was measured immediately upon mixing (Excitation, 490 nm; Emission, 520 nm; g-factor, 0.96), using a Cytation3 (BioTek) microplate reader and measured continuously for up to 120 minutes. The FP response stabilized after 15 minutes for P. aeruginosa and A. baumannii PBP3, 30 minutes for E. coli PBP3 and A. baumannii PBP1a, and less than 1 minute for N. gonorrhoeae PBP2. […] The competition binding assay (80 μl final volume) was validated using beta-lactams and PBPs at final concentrations of: 1.5 μM for E. coli PBP3; 0.75 μM for P. aeruginosa PBP3; 1 μM for A. baumannii PBP1a; 0.2 μM for A. baumannii PBP3; and 0.25 μM for N. gonorrhoeae PBP2. Bocillin-FL was at 0.1 μM (0.05 μM with A. baumannii PBP1a) and beta-lactam concentrations ranged from 0-1,000 μM. E. coli PBP3 was incubated with increasing concentrations of ampicillin in a black 384-well microplate (Corning) for 30 minutes. P. aeruginosa PBP3 was incubated for 15 minutes with aztreonam, whereas A. baumannii PBP1a and PBP3 were incubated for 15 minutes with meropenem, and then Bocillin-FL was added followed immediately by the FP measurement for up to 60 minutes. […] The beta-lactam potency was reported as the concentration of beta-lactam required to reduce the amount of PBP bound-Bocillin-FL by 50% (EC50). […] The EC50 of aztreonam was determined to be <0.5 μM for P. aeruginosa PBP3. […] Binding assays for boronic acid PBP inhibitors were performed in an identical fashion for the respective PBPs.

[2] = tested on: P. aeruginosa (ΔmexAB-oprM); assay: Broth microdilution MIC in iron-depleted CAMHB (IDM); format: cell-based; settings: Pseudomonas aeruginosa, read-out: Minimum inhibitory concentration, P. aeruginosa ΔmexAB-oprM
[3] = tested on: B. humptydooensis ATCC BAA-2767; assay: microbe, parasite or virus in culture; format: cell-based; settings: Burkholderia humptydooensis, ATCCBAA2767, read-out: Minimum inhibitory concentration (MIC), B. humptydooensis ATCC BAA-2767
[4] = tested on: A. baumannii CDC-0036; assay: microbe, parasite or virus in culture; format: cell-based; settings: Acinetobacter baumannii, CDC0036, read-out: MIC, A. baumannii CDC-0036
[5] = tested on: P. aeruginosa CDC-0090; assay: microbe, parasite or virus in culture; format: cell-based; settings: Pseudomonas aeruginosa, CDC0090, read-out: Minimum inhibitory concentration, P. aeruginosa CDC-0090
[6] = tested on: A. baumannii CDC-0045; assay: microbe, parasite or virus in culture; format: cell-based; settings: Acinetobacter baumannii, CDC0045, read-out: MIC, A. baumannii CDC-0045
[7] = tested on: P. aeruginosa ATCC 27853; assay: microbe, parasite or virus in culture; format: cell-based; settings: Pseudomonas aeruginosa, ATCC27853, read-out: Minimum inhibitory concentration, P. aeruginosa ATCC 27853
[8] = tested on: P. aeruginosa CDC-0095; assay: microbe, parasite or virus in culture; format: cell-based; settings: Pseudomonas aeruginosa, CDC0095, read-out: Minimum inhibitory concentration, P. aeruginosa CDC-0095
[9] = tested on: P. aeruginosa CDC-0054; assay: microbe, parasite or virus in culture; format: cell-based; settings: Pseudomonas aeruginosa, CDC0054, read-out: Minimum inhibitory concentration, P. aeruginosa CDC-0054
[10] = tested on: A. baumannii CDC-0083; assay: microbe, parasite or virus in culture; format: cell-based; settings: Acinetobacter baumannii, CDC0083, read-out: MIC, A. baumannii CDC-0083
[11] = tested on: A. baumannii 1258916; assay: microbe, parasite or virus in culture; format: cell-based, Acinetobacter baumannii; settings: Acinetobacter baumannii, 1258916, read-out: MIC, A. baumannii 1258916
[12] = tested on: A. baumannii ATCC 19606; assay: microbe, parasite or virus in culture; format: cell-based; settings: Acinetobacter baumannii, ATCC19606, read-out: MIC, A. baumannii ATCC 19606
[13] = tested on: P. aeruginosa CDC-0110; assay: microbe, parasite or virus in culture; format: cell-based; settings: Pseudomonas aeruginosa, CDC0110, read-out: Minimum inhibitory concentration, P. aeruginosa CDC-0110
[14] = tested on: A. baumannii CDC-0033; assay: microbe, parasite or virus in culture; format: cell-based; settings: Acinetobacter baumannii, CDC0033, read-out: MIC, A. baumannii CDC-0033
[15] = tested on: A. baumannii ATCC 17978; assay: microbe, parasite or virus in culture; format: cell-based; settings: Acinetobacter baumannii, ATCC17978, read-out: MIC, A. baumannii ATCC 17978
[16] = tested on: P. aeruginosa ATCC 35151; assay: microbe, parasite or virus in culture; format: cell-based; settings: Pseudomonas aeruginosa, ATCC35151, read-out: Minimum inhibitory concentration, P. aeruginosa ATCC 35151
[17] = tested on: B. thailandensis ATCC 700388; assay: microbe, parasite or virus in culture; format: cell-based; settings: Burkholderia thailandensis, ATCC700388, read-out: Minimum inhibitory concentration (MIC), B. thailandensis ATCC 700388
[18] = target: T2, PBP3 from Acinetobacter baumannii (ATCC 19606) (Acinetobacter baumannii, UniProt A0ABX6CK25); assay: Bocillin-FL fluorescence polarization competition binding, A. baumannii PBP3; settings: fluorescence polarization competition binding assay using Bocillin-FL; read-out: A. baumannii PBP3 Potency
T2 sequence (A0ABX6CK25 64-610): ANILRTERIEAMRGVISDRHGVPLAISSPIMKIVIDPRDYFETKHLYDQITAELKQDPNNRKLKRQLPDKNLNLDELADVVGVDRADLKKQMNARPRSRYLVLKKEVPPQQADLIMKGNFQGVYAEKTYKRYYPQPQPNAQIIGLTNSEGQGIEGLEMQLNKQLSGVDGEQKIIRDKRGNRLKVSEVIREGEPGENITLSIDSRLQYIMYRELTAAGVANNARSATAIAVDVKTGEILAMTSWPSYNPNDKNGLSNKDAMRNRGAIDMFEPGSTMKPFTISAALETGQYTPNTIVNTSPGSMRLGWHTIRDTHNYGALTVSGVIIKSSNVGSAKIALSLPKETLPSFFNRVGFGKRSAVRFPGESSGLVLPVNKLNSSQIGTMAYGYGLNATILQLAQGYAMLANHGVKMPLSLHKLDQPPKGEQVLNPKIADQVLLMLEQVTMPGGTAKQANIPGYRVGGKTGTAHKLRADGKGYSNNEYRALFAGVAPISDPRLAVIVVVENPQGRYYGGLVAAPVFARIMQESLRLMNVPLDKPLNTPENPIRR
Source text: as §1

SMILES | EC50 [1] [µM] | MIC [2] [µg/mL] | MIC [3] [µg/mL] | MIC [4] [µg/mL] | MIC [5] [µg/mL] | MIC [6] [µg/mL] | MIC [7] [µg/mL] | MIC [8] [µg/mL] | MIC [9] [µg/mL] | MIC [10] [µg/mL] | MIC [11] [µg/mL] | MIC [12] [µg/mL] | MIC [13] [µg/mL] | MIC [14] [µg/mL] | MIC [15] [µg/mL] | MIC [16] [µg/mL] | MIC [17] [µg/mL] | IC50 [18] [µM]
C[C@@H](O)[C@H]1C(=O)N2C(C(=O)O)=C(S[C@@H]3CN[C@H](C(=O)N(C)C)C3)[C@H](C)[C@H]12 [meropenem, reference compound] | < 0.5 | – | – | – | – | – | – | – | – | – | – | – | – | – | – | – | – | –
O=C(O)c1c(F)ccc2c1OB(O)[C@@H](NC(=O)[C@@H](NC(=O)N1CCN(Cc3ccc(O)c(O)c3Cl)C(=O)C1=O)c1ccc(P(=O)(O)O)cc1)C2 (single isomer, unassigned) [Example 161] | – | 2 to 4 (≈ 2.72 to 5.44 µM) | < 1 | > 128 | > 128 | > 128 | 2 to 4 (≈ 2.72 to 5.44 µM) | < 1 | < 1 | 8 to 16 (≈ 10.9 to 21.8 µM) | > 128 | < 1 | < 1 | 8 to 16 (≈ 10.9 to 21.8 µM) | < 1 | < 1 | < 1 | < 10
